Several values for one entry are separate records, joined by “and”; a condition that tells them apart may be missing. Equal entries are not always repeated. Inconclusive results and toxic doses are left out. Where a SMILES comes first, the peptide text is derived from it. The star is where a group is joined. Cbz = O=C(OCc1ccccc1)*
Tested on: B6C3F1 mice, B16 melanoma ip, median survival T/C
Assay: NCI In Vivo Anticancer Drug Screen. Data for tumor model B16 Melanoma (intraperitoneal) in B6C3F1 mice
Settings: endpoint: median survival time, higher = longer survival
Summary of the method: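 Readout: survival or tumor size in treated mice relative to vehicle controls (T/C). Model uses transplantable tumors grown in mice.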

[1] = dose: 12.5 mg/kg/injection, schedule: Q01DX009 (ip), vehicle: saline
[2] = dose: 25.0 mg/kg/injection, schedule: Q01DX009 (ip), vehicle: saline
[3] = dose: 50.0 mg/kg/injection, schedule: Q01DX009 (ip), vehicle: saline
[4] = dose: 100.0 mg/kg/injection, schedule: Q01DX009 (ip), vehicle: saline
[5] = dose: 12.5 mg/kg/injection, schedule: Q01DX009 (ip), vehicle: saline with Tween-80
[6] = dose: 25.0 mg/kg/injection, schedule: Q01DX009 (ip), vehicle: saline with Tween-80
[7] = dose: 50.0 mg/kg/injection, schedule: Q01DX009 (ip), vehicle: saline with Tween-80
[8] = dose: 100.0 mg/kg/injection, schedule: Q01DX009 (ip), vehicle: saline with Tween-80
[9] = dose: 25.0 mg/kg/injection, schedule: Q01DX009 (ip), vehicle: Klucel (hydroxypropylcellulose) (HPC)
[10] = dose: 50.0 mg/kg/injection, schedule: Q01DX009 (ip), vehicle: Klucel (hydroxypropylcellulose) (HPC)
[11] = dose: 100.0 mg/kg/injection, schedule: Q01DX009 (ip), vehicle: Klucel (hydroxypropylcellulose) (HPC)
[12] = dose: 200.0 mg/kg/injection, schedule: Q01DX009 (ip), vehicle: saline with Tween-80

COc1cc(NCc2ccc3nc(N)nc(N)c3c2C)cc(OC)c1OC
T/C (dose: 2.5 mg/kg/injection, schedule: Q01DX009 (ip), vehicle: sodium bicarbonate): 110 % of control
T/C (dose: 5.0 mg/kg/injection, schedule: Q01DX009 (ip), vehicle: sodium bicarbonate): 118 % of control
T/C (dose: 6.25 mg/kg/injection, schedule: Q01DX009 (ip), vehicle: water): 108 % of control
T/C (dose: 10.0 mg/kg/injection, schedule: Q01DX009 (ip), vehicle: sodium bicarbonate): 123 % of control
T/C (dose: 12.5 mg/kg/injection, schedule: Q01DX009 (ip), vehicle: water): 114 % of control
T/C (dose: 25.0 mg/kg/injection, schedule: Q01DX009 (ip), vehicle: water): 121 % of control

C[CH2][Sn]([CH2]C)([O]S(C)(=O)=O)[O]S(C)(=O)=O
T/C (dose: 0.78 mg/kg/injection, schedule: Q01DX009 (ip), vehicle: saline): 92 % of control
T/C (dose: 0.79 mg/kg/injection, schedule: Q01DX009 (ip), vehicle: saline): 102 % of control
T/C (dose: 1.56 mg/kg/injection, schedule: Q01DX009 (ip), vehicle: saline): 98 % of control and 103 % of control
T/C (dose: 3.12 mg/kg/injection, schedule: Q01DX009 (ip), vehicle: saline): 97 % of control and 103 % of control
T/C (dose: 6.25 mg/kg/injection, schedule: Q01DX009 (ip), vehicle: saline): 108 % of control and 96 % of control
T/C [1]: 91 % of control and 99 % of control

CC(=O)OCC1OC(n2ccc(N)nc2=O)C(OC(C)=O)C1OC(C)=O (stereo not given)
T/C [1]: 106 % of control
T/C [2]: 104 % of control
T/C [3]: 109 % of control
T/C [4]: 108 % of control
T/C (dose: 200.0 mg/kg/injection, schedule: Q01DX009 (ip), vehicle: saline): 120 % of control

CCOc1ccc2c(c1)/C(=C\C=C\C1CC(C)C3CC(OCC)CCC3N1CC)CC(C)N2CC (stereo not given)
T/C (dose: 1.25 mg/kg/injection, schedule: Q01DX009 (ip), vehicle: saline + alcohol): 97 % of control
T/C (dose: 2.5 mg/kg/injection, schedule: Q01DX009 (ip), vehicle: saline + alcohol): 100 % of control
T/C (dose: 5.0 mg/kg/injection, schedule: Q01DX009 (ip), vehicle: saline + alcohol): 113 % of control

COc1ccc(OCC(O)CN2CCN(c3ccc(Cl)cc3)CC2)cc1 (stereo not given)
T/C [5]: 122 % of control
T/C [6]: 122 % of control
T/C [7]: 87 % of control
T/C [8]: 89 % of control and 96 % of control

CNC(=O)O/N=C(\CN=[N+]=[N-])C(C)(C)C
T/C (dose: 0.12 mg/kg/injection, schedule: Q01DX009 (ip), vehicle: saline): 104 % of control
T/C (dose: 0.25 mg/kg/injection, schedule: Q01DX009 (ip), vehicle: saline): 99 % of control
T/C (dose: 0.5 mg/kg/injection, schedule: Q01DX009 (ip), vehicle: saline): 118 % of control
T/C (dose: 1.0 mg/kg/injection, schedule: Q01DX009 (ip), vehicle: saline): 101 % of control

CCN(CC)CCOCCO
T/C (dose: 12.0 mg/kg/injection, schedule: Q01DX009 (ip), vehicle: saline): 105 % of control
T/C [2]: 116 % of control
T/C [3]: 98 % of control
T/C [4]: 90 % of control

CC(NC(=O)OCc1ccccc1)C(=O)NC(CC(N)=O)C(=O)O (stereo not drawn) (Cbz-Ala-Asn-OH; configuration not given here)
T/C (dose: 12.0 mg/kg/injection, schedule: Q01DX009 (ip), vehicle: Klucel (hydroxypropylcellulose) (HPC)): 101 % of control
T/C [9]: 101 % of control
T/C [10]: 98 % of control
T/C [11]: 107 % of control
T/C (dose: 400.0 mg/kg/injection, schedule: Q01DX009 (ip), vehicle: Klucel (hydroxypropylcellulose) (HPC)): 104 % of control

O=C1c2c(O)cccc2-c2nn(CCNCCO)c3ccc(NCCNCCO)c1c23
T/C (dose: 2.75 mg/kg/injection, schedule: Q01DX009 (ip), vehicle: water): 250 % of control
T/C (dose: 5.5 mg/kg/injection, schedule: Q01DX009 (ip), vehicle: water): 158 % of control

O=C/C=C/c1cccc([N+](=O)[O-])c1
T/C [6]: 107 % of control
T/C [7]: 116 % of control
T/C [8]: 118 % of control
T/C [12]: 124 % of control

S=c1sc2ccccc2n1CN1CCOCC1
T/C [5]: 99 % of control and 102 % of control
T/C (dose: 18.0 mg/kg/injection, schedule: Q01DX009 (ip), vehicle: saline with Tween-80): 89 % of control
T/C [6]: 109 % of control and 112 % of control
T/C (dose: 30.0 mg/kg/injection, schedule: Q01DX009 (ip), vehicle: saline with Tween-80): 91 % of control
T/C [7]: 113 % of control and 100 % of control
T/C (dose: 83.33 mg/kg/injection, schedule: Q01DX009 (ip), vehicle: saline with Tween-80): 100 % of control
T/C [8]: 102 % of control and 105 % of control
T/C (dose: 138.88 mg/kg/injection, schedule: Q01DX009 (ip), vehicle: saline with Tween-80): 106 % of control
T/C [12]: 95 % of control and 101 % of control

OCC(O)C(O)C(O)C(O)CO (stereo not given)
T/C (dose: 75.0 mg/kg/injection, schedule: Q01DX009 (ip), vehicle: saline): 107 % of control
T/C (dose: 150.0 mg/kg/injection, schedule: Q01DX009 (ip), vehicle: saline): 104 % of control
T/C (dose: 300.0 mg/kg/injection, schedule: Q01DX009 (ip), vehicle: saline): 112 % of control
T/C (dose: 600.0 mg/kg/injection, schedule: Q01DX009 (ip), vehicle: saline): 112 % of control
T/C (dose: 1200.0 mg/kg/injection, schedule: Q01DX009 (ip), vehicle: saline): 98 % of control

CO[C@H](/C(C)=C/C=C/C(C)=C/c1coc(C)n1)[C@H](C)[C@H]1C[C@@H](O)[C@@]2(C)O[C@H]2/C=C/[C@@H](C)[C@@H]2C[C@@H](CC(=O)O2)C[C@H]2O[C@@H]2C(=O)O1
T/C (dose: 0.01 mg/kg/injection, schedule: Q01DX009 (ip), vehicle: Klucel (hydroxypropylcellulose) (HPC)): 118 % of control and 98 % of control and 102 % of control
T/C (dose: 0.01 mg/kg/injection, schedule: Q01DX009 (ip), vehicle: other): 94 % of control and 106 % of control
T/C (dose: 0.03 mg/kg/injection, schedule: Q01DX009 (ip), vehicle: Klucel (hydroxypropylcellulose) (HPC)): 111 % of control and 112 % of control and 97 % of control
T/C (dose: 0.03 mg/kg/injection, schedule: Q01DX009 (ip), vehicle: other): 110 % of control
T/C (dose: 0.1 mg/kg/injection, schedule: Q01DX009 (sc), vehicle: Klucel (hydroxypropylcellulose) (HPC)): 154 % of control
T/C (dose: 0.4 mg/kg/injection, schedule: Q01DX009 (sc), vehicle: Klucel (hydroxypropylcellulose) (HPC)): 117 % of control

CN(C=O)C(C(=O)Nc1cccc2c(OC(=O)C(N(C)C=O)(N(C)C=O)N(C)C=O)c(N=Nc3ccc(S(=O)(=O)Nc4nccs4)cc3)cc(N=Nc3ccc(S(=O)(=O)Nc4nccs4)cc3)c12)(N(C)C=O)N(C)C=O (tested in a mixture with another compound)
T/C [6]: 98 % of control
T/C [7]: 112 % of control
T/C [8]: 121 % of control
T/C [12]: 104 % of control
T/C (dose: 400.0 mg/kg/injection, schedule: Q01DX009 (ip), vehicle: saline with Tween-80): 105 % of control

CCOC(=O)N(CCCCCCNC(c1ccccc1)S(=O)(=O)O)c1ccccc1 (stereo not given)
T/C [9]: 96 % of control
T/C [10]: 100 % of control
T/C [11]: 100 % of control

COC(=O)C(F)C(Br)C(=O)OC (stereo not given)
T/C (dose: 3.13 mg/kg/injection, schedule: Q01DX009 (ip), vehicle: saline with Tween-80): 98 % of control
T/C (dose: 6.25 mg/kg/injection, schedule: Q01DX009 (ip), vehicle: saline with Tween-80): 91 % of control
T/C [5]: 93 % of control
T/C [6]: 93 % of control
T/C [7]: 90 % of control

COCC12CCC(OC)C34C5CC6(O)C(OC)CC(OC(C)=O)(C5C6OC(=O)c5ccccc5)C(C(OC)C13)C4N(C)C2 (stereo not given)
T/C (dose: 15.0 micrograms/kg/injection, schedule: Q01DX009 (ip), vehicle: Klucel (hydroxypropylcellulose) (HPC)): 92 % of control
T/C (dose: 30.0 micrograms/kg/injection, schedule: Q01DX009 (ip), vehicle: Klucel (hydroxypropylcellulose) (HPC)): 108 % of control
T/C (dose: 60.0 micrograms/kg/injection, schedule: Q01DX009 (ip), vehicle: Klucel (hydroxypropylcellulose) (HPC)): 96 % of control
T/C (dose: 120.0 micrograms/kg/injection, schedule: Q01DX009 (ip), vehicle: Klucel (hydroxypropylcellulose) (HPC)): 99 % of control

Clc1ccc2c(Cl)ncnc2c1
T/C [1]: 96 % of control
T/C [2]: 100 % of control
T/C [7]: 93 % of control
T/C [3]: 100 % of control

CCN(CC)CCCC(C)Nc1c2ccc(C)cc2nc2ccc(OC)cc12 (stereo not given)
T/C [1]: 102 % of control
T/C [2]: 111 % of control

C[C@]12CC[C@H](O)CC1=CC[C@@H]1[C@@H]2CC[C@]2(C)C(=O)CC[C@@H]12
T/C [6]: 100 % of control
T/C [7]: 97 % of control
T/C [8]: 101 % of control
T/C [12]: 92 % of control

— PubChem BioAssay AID200 (DTP/NCI, 2004)
